Results from paper PMC11464777, “Approved drugs successfully repurposed against Leishmania based on machine learning predictions” (Frontiers in Cellular and Infection Microbiology, 2024).
Values after ≈ are worked out from the molar mass of the structure shown. Like-named read-outs stand apart in the source and are kept apart here.

Columns and labels:
[1] = tested on: multiple strains of L. donovani; design: method as in Pandharkar et al., 2014; conditions: ref Pandharkar et al., 2014, read-out: IC50 in vitro; cited from earlier work
[2] = Cytotoxicity assay towards THP-1-derived macrophages (MTT); assay type: cell-based, human; conditions: human, THP-1-derived macrophages (PMA-differentiated), 72 h of treatment, uninfected cells, MTT
Experimental: (§1) Louis, MO, USA). The PMA-treated THP-1 cells were maintained in this condition for 24 h, followed by a 24 h of rest period after the removal of PMA. […] The cytotoxicity towards THP-1-derived macrophages was assessed after 24, 48 and 72 hours of incubation by MTT assay as described above. […] The percentage of viable cells was calculated from the Optical Density at 570 nm as follows: […]

[3] = tested on: THP-1-derived macrophages; assay: as above; assay type: cell-based, human
Experimental: as §1

[4] = tested on: L. infantum (LV50 and Drep-14) and L. major (Empa-12) promastigotes; assay: MTT promastigote viability assay, stated across the three strains; assay type: cell-based, Leishmania infantum, Leishmania major; conditions: 72 h; for Effect on promastigote viability: three strains, at the tested concentrations
Description: (§2) Three Tunisian laboratory strains already described ([Oualha et al., 2019]), originally isolated from distinct clinical manifestations were used in this study: (i) L. infantum LV50 MHOM/TN/94/LV50) strain originating from a bone marrow of a visceral leishmaniasis patient, (ii) L. infantum Drep-14 (MHOM/TN/96/Drep-14) strain isolated from a lesion of a sporadic cutaneous leishmaniasis patient and (iii) L. major Empa-12 (MHOM/TN/2012/Empa-12) strain isolated from a zoonotic cutaneous leishmaniasis patient. Stocks of these parasites obtained after passage through BALB/c mice were used as previously described ([Oualha et al., 2019]). Thawed cryopreserved parasites were cultured at 22°C in RPMI-1640/Glutamax medium (Gibco BRL, Germany) containing penicillin (100 U/mL) and streptomycin (100 μg/mL) supplemented with 10% heat-inactivated Fetal Bovine Serum (FBS) (Gibco BRL, Germany).
(§3) The effect of the selected compounds on the viability of Leishmania promastigotes was evaluated by a colorimetric MTT (3-(4,5-dimethylthiazol-2yl)-2,5-diphenyl tetrazolium bromide) assay. It consists in the reduction of tetrazolium salt to a […] crystal (blue formazan) by the succinate dehydrogenase activity of mitochondria in living cells, which can be quantified by spectrophotometry. Briefly, 90 μL of promastigotes (5 × 10^5 parasites/well) harvested from the stationary growth phase of each strain were added to a 96-well culture plate and incubated with 10 μL of a range of serial dilutions of the selected compounds in technical replicates (final concentration of 1% DMSO per well) ([Ioset et al., 2009]; [Harigua-Souiai et al., 2018]). […] After 72h of incubation at 22°C, 25 μl of MTT solution (5 mg/mL) was added to each well and incubated at 22°C for 4h. Then, 150 μl of DMSO was added to each well to dissolve the blue formazan and the optical density (OD) was measured at 570 nm with a microplate reader ([…], Labsystems). Promastigotes incubated in complete medium containing 1% DMSO were used as negative control. The standard anti-Leishmania drug, Amphotericin B was used as a positive control. All experiments were performed in two technical replicates and repeated three times in independent experiments. The mean percentage of promastigotes viability was calculated from the Optical Density at 570 nm as follows:
(§4) Promastigote viability (%)= [(ODcompound− ODblank)/(ODnegative control −ODblank)]*100
(§5) Results were expressed as the mean value of the percentage of promastigotes viability ± standard deviation (SD).

[5] = tested on: L. infantum; design: method as in Gómez-Ochoa et al., 2009; conditions: 98 dogs naturally infected with L. infantum, 12-months follow-up; ref Gómez-Ochoa et al., 2009; cited from earlier work
[6] = tested on: L. infantum; design: method as in Cavalera et al., 2021; conditions: dogs with leishmaniasis and chronic kidney disease; ref Cavalera et al., 2021; cited from earlier work
[7] = tested on: L. infantum LV50 promastigotes; assay: MTT-based promastigote viability assay, L. infantum LV50; assay type: cell-based; conditions: Leishmania infantum, LV50, 72 h, MTT
Description: as §2, §3, §4, §5

[8] = tested on: L. infantum Drep-14 promastigotes; assay: microbe, parasite or virus in culture; assay type: cell-based; conditions: Leishmania infantum, 72 h
Description: as §2, §3, §4, §5

[9] = tested on: L. major Empa-12 promastigotes; assay: MTT-based promastigote viability assay, L. major Empa-12; assay type: cell-based; conditions: Leishmania major, Empa-12, 72 h, MTT
Description: as §2, §3, §4, §5

[10] = tested on: L. infantum LV50 intracellular amastigotes; assay: Anti-amastigote assay in THP-1-derived macrophages, L. infantum LV50; assay type: cell-based, Leishmania infantum; conditions: for IC50: Leishmania infantum, Macrophage, LV50, intramacrophage, 72 h
Experimental: (§6) THP-1-derived macrophages (5 × 10^4/well) were seeded in each 8-well Labtek slides (Thermo Scientific). Adherent macrophages were obtained as described above, then infected with stationary phase promastigotes of each strain at a ratio 10:1 (10 parasites/macrophage) in RPMI medium containing penicillin (100 U/mL) and streptomycin (100 μg/mL) with 10% fetal bovine serum (Gibco, Brazil) at 37°C in 5% CO2 for 24 h. […] Non-infected control cells were incubated in a supplemented RPMI medium containing 1% DMSO. After 72h of incubation, cells were fixed and stained using May-Grunwald-Giemsa staining with RAL 555 Kit (RAL DIAGNOSTICS, France), following the manufacturer’s instructions. The percentage of infected cells and the total number of internalized parasites per 100 macrophages were determined under immersion oil (magnification of 1000X) using light microscopy. The percentage of amastigotes viability was expressed as the percentage of total number of internalized parasites within treated cells relative to the total number of internalized parasites within control cells treated with 1% DMSO, and calculated as follows:
(§7) Relative amastigote viability (%) = [(number of amastigotes/100 treated cells)/(number of amastigotes/100 treated cells with1% DMSO)] * 100
(§8) The relative percentage of amastigote viability was evaluated to calculate half inhibitory concentrations (IC50). The mean IC50 values were determined by plotting the curves of the logarithm of compound concentrations versus the relative amastigote viability of three independent experiments performed in two technical replicates for each compound fitted into a nonlinear regression model, using GraphPad Prism version 8.0.1. Selectivity Index (SI) values were calculated as the ratio between cytotoxicity and activity against amastigotes and determined for each compound as follows: SI= CC50/IC50.

[11] = tested on: L. infantum Drep-14 intracellular amastigotes; assay: Anti-amastigote assay in THP-1-derived macrophages, L. infantum Drep-14; assay type: cell-based, Leishmania infantum; conditions: Leishmania infantum, Macrophage, Drep-14, intramacrophage, 72 h
Experimental: as §6, §7, §8

[12] = tested on: L. major Empa-12 intracellular amastigotes; assay: Anti-amastigote assay in THP-1-derived macrophages, L. major Empa-12; assay type: cell-based, Leishmania major; conditions: for IC50: Leishmania major, Macrophage, Empa-12, intramacrophage, 72 h
Experimental: as §6, §7, §8

[13] = tested on: L. major and L. infantum amastigotes; assay: Anti-amastigote assay, stated across the three strains; assay type: cell-based, Leishmania infantum, Leishmania major; conditions: CC50/IC50 amastigotes
Experimental: as §6, §7, §8

[14] = tested on: Leishmania (Viannia) braziliensis; design: method as in Cazorla et al., 2004; conditions: hamsters infected with Leishmania (Viannia) braziliensis, versus Glucantime; ref Cazorla et al., 2004; cited from earlier work
[15] = read-out: THP-1-derived macrophages CC50
[16] = read-out: THP-1-derived macrophages CC50 (in brackets) (converted)
[17] = read-out: Promastigotes IC50 (in brackets) (converted)
[18] = read-out: Amastigotes IC50 (in brackets) (converted)

For `OC(Cn1cncn1)(Cn1cncn1)c1ccc(F)cc1F` [Fluconazole], the IC50 [1] is given as 140000 ± 50000 nM.
With `O=c1[nH]c2ccccc2n1CCCN1CCC(n2c(=O)[nH]c3cc(Cl)ccc32)CC1` [Domperidone] the CC50 at 72 h [2, 15] was 26.5 ± 2.6 µg/mL, the CC50 at 72 h [2, 16] was 62400 nM and the “Concentration at which cytotoxic effects start” value (shortened to “Concentration”) ([3]; 24 h of incubation) was 25000 ng/mL. The “Concentration” value ([3]; 48 h of incubation) was 25000 ng/mL, the “Concentration” value ([3]; 72 h of incubation) was 25000 ng/mL and the “Effect on promastigote viability” value [4] was “dose-dependent decrease of parasite viability”. For the same compound, the “Clinical outcome in dogs” value [5] was “effectively reduced clinical symptoms and antibody levels” and the “Serum markers in dogs” value [6] was “improve serum creatinine and to reduce anti-L. infantum antibody titers, globulins, gamma globulins, and C-reactive protein (CRP)”.
For `CCCCOc1cc(C(=O)NCCN(CC)CC)c2ccccc2n1` [Dibucaine], the IC50 ([7]; read-out: Promastigotes IC50) was 0.58 ± 0.02 µg/mL, the IC50 [7, 17] was 1530 nM and the IC50 ([8]; read-out: Promastigotes IC50) was 1.05 ± 0.06 µg/mL. For the same compound, the IC50 ([8]; read-out: Promastigotes IC50 (in brackets)) was 2760 nM, the IC50 ([9]; read-out: Promastigotes IC50) was 1.04 ± 0.09 µg/mL and the IC50 [9, 17] was 2740 nM. The CC50 at 72 h [2, 15] was 22.7 ± 1.08 µg/mL, the CC50 at 72 h [2, 16] was 59700 nM and the “Concentration” value ([3]; 24 h of incubation) was 30000 ng/mL. The “Concentration” value ([3]; 48 h of incubation) was 30000 ng/mL, the “Concentration” value ([3]; 72 h of incubation) was 15000 ng/mL and the “Selectivity Index (SI)” value ([10]; CC50 THP-1 / IC50 amastigotes LV50, 72 h) was 31.97. The IC50 ([10]; read-out: Amastigotes IC50) was 0.71 ± 0.09 µg/mL, the IC50 [10, 18] was 1870 nM and the IC50 ([11]; read-out: Amastigotes IC50) was 0.9 ± 0.03 µg/mL. For the same compound, the IC50 [11, 18] was 2370 nM, the “Selectivity Index (SI)” value ([12]; CC50 THP-1 / IC50 amastigotes Empa-12, 72 h) was 27.35 and the IC50 ([12]; read-out: Amastigotes IC50) was 0.83 ± 0.05 µg/mL. The IC50 [12, 18] was 2190 nM, the IC50 ([4]; Leishmania infantum, LV50, Drep-14, Empa-12, MTT, read-out: Promastigotes IC50, span over the three strains) was 0.58 to 1.05 µg/mL (≈ 1.69 to 3.06 µM) and the “Effect on promastigote viability” value [4] was “dose-dependent decrease of parasite viability”. The “Selectivity index (SI), span over strains” value [13] was greater than 25 and the “Efficacy of intralesional treatment in hamsters” value [14] was “comparable to the standard dosages of Glucantime”.
